Measured values taken from US9611251B2, “Substituted piperidine compounds and their use as orexin receptor modulators” (Janssen Pharmaceutica NV, priority 2013, dated 2017).

Legend:
rat orexin 1 receptor = rat orexin 1 receptor (Rattus norvegicus, UniProt P56718); assay: Rat orexin 1 receptor radioligand binding; conditions: rat orexin 1 receptor radioligand binding; averages of 2-20 runs; read-out: rOX1 Ki
In short: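 Cell-suspension competition binding used 4 nM final tritiated thiazolyl-pyrrolidinyl-methanone radioligand in PBS, ≤0.1% DMSO, with 10 µM almorexant defining nonspecific binding. Filter-bound radioactivity was counted in triplicate. IC50 came from one-site competition fits and was converted to Ki using the predetermined Kd.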

human orexin 1 receptor = human orexin 1 receptor (Homo sapiens, UniProt O43613); assay: Human orexin 1 receptor radioligand binding; conditions: human orexin 1 receptor radioligand binding; averages of 2-20 runs; read-out: hOX1 Ki
Description: The in vitro affinity of the compounds of the invention for the rat/human orexin 1 and human orexin 2 receptors was determined by competitive radioligand binding using [^3H](1-(5-(2-fluoro-phenyl)-2-methyl-thiazol-4-yl)-1-((S)-2-(5-phenyl-(1,3,4)oxadiazol-2-ylmethyl)-pyrrolidin-1-yl)-methanone) (Langmead et al., 2004) and [^3H]EMPA (n-ethyl-2[96-methoxypyridin-3-yl)-(toluene-2-sulfonyl)-amino]-N-pyridin-3-ylmethyl acetamide), respectively (Langmead et al., 2004, British Journal of Pharmacology 141:340-346; Malherbe et al., 2004, British Journal of Pharmacology 156:1326-41).
Data are analyzed using pc-Sandy macro and graphed on Graphpad Prism 5. For analysis, each concentration point is averaged from triplicate values and the averaged values are plotted on Graphpad Prism. The IC50 was determined by applying the following equation (GraphPad Prism 5.0, SanDiego) for one site competition where X=log (concentration) and Y=specific binding. Top denotes the total [^3H]-(1-(5-(2-fluoro-phenyl)-2-methyl-thiazol-4-yl)-1-((S)-2-(5-phenyl-(1,3,4)oxadiazol-2-ylmethyl)-pyrrolidin-1-yl)-methanone) binding, bottom denotes the nonspecific [^3H]-(1-(5-(2-fluoro-phenyl)-2-methyl-thiazol-4-yl)-1-((S)-2-(5-phenyl-(1,3,4)oxadiazol-2-ylmethyl)-pyrrolidin-1-yl)-methanone) binding. Graphpad Prism calculates Ki value from IC50 and the pre-determined Kd values for [^3H]-(1-(5-(2-fluoro-phenyl)-2-methyl-thiazol-4-yl)-1-((S)-2-(5-phenyl-(1,3,4)oxadiazol-2-ylmethyl)-pyrrolidin-1-yl)-methanone) and [3H]-EMPA. The Ki for each compound is then uploaded into 3DX. Each run comprises individual compounds in triplicate.
Rat and Human Orexin 1 Receptor Radioligand Binding Studies
Human Embryonic Kidney 293 cells (HEK293) stably expressing rat orexin 1 receptor (Genebank accession number NM_001525) or Chinese ovary cells (CHO) stably expressing human orexin 1 receptor (Genebank accession number NM_001526) were grown to confluency in DMEM (Hyclone, cat #SH30022), 10% FBS, 1×Pen/Strep, 1× sodium pyruvate, 10 mM HEPES, 600 μg/mL G418 and DMEM/F12 (Gibco, Cat #11039), 10% FBS, 1×Pen/Strep, 600 μg/mL G418 media, respectively on 150 cm^2 tissue culture plates, washed with 5 mM EDTA in PBS (HyClone Dulbecco's Phosphate Buffered Saline 1× with Calcium and Magnesium, Cat #SH30264.01, hereafter referred to simply as PBS) and scraped into 50 ml tubes. After centrifugation (2K×G, 5 min at 4° C.), the supernatant was aspirated and the pellets frozen and stored at −80° C. Cells were resuspended in PBS in the presence of 1 tablet of protease inhibitor cocktail (Roche, Cat. #11836145001) per 50 mL. Each cell pellet from a 15 cm plate was resuspended in 10 mL, stored on ice, and homogenized for 45 sec prior to addition to the reactions. Competition binding experiments in 96 well polypropylene plates were performed using [^3H]-(1-(5-(2-fluoro-phenyl)-2-methyl-thiazol-4-yl)-1-((S)-2-(5-phenyl-(1,3,4)oxadiazol-2-ylmethyl)-pyrrolidin-1-yl)-methanone) (Moraveck Corporation, specific activity=35.3 Ci/mmol), diluted to a 10 nM concentration in PBS (4 nM final). […] The final concentration of DMSO in the reactions is equal to or less than 0.1%. Total and nonspecific binding was determined in the absence and presence of 10 μM almorexant. The total volume of each reaction is 200 μL (20 μL of diluted compounds, 80 μL of [^3H]-(1-(5-(2-fluoro-phenyl)-2-methyl-thiazol-4-yl)-1-((S)-2-(5-phenyl-(1,3,4)oxadiazol-2-ylmethyl)-pyrrolidin-1-yl)-methanone) diluted in PBS and 100 μL of the cell suspension). Reactions were run for 60 min at room temperature and terminated by filtration through GF/C filter plates (PerkinElmer, Cat. #6005174) presoaked in 0.3% polyethylenimine using the cell harvester (PerkinElmer Filtermate). The plates were washed 3 times by aspirating 30 ml PBS through the plates. Plates were dried in 55° C. oven for 60 min, scintillation fluid was added, and the radioactivity was counted on a Topcount (Packard).

human orexin 2 receptor = human orexin 2 receptor (Homo sapiens (Human), UniProt O43614); assay: Human orexin 2 receptor radioligand binding ([3H]-EMPA); conditions: averages of 2-20 runs, read-out: hOX2 Ki
Chain of human orexin 2 receptor (O43614 whole entry): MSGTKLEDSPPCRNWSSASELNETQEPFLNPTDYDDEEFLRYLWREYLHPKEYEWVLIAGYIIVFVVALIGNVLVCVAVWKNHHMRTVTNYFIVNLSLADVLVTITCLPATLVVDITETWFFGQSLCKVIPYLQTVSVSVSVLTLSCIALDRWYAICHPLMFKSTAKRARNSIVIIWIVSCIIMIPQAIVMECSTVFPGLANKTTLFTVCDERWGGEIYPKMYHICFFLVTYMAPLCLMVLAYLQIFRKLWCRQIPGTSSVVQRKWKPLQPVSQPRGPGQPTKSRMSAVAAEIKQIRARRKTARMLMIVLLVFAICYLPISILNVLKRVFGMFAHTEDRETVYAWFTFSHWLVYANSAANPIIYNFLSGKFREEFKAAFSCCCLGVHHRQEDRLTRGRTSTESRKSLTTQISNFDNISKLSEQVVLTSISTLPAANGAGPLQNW
In short: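 Competition binding using homogenized HEK293 cells stably expressing human orexin 2 receptor, [3H]-EMPA at 2 nM final and ≤0.1% DMSO; nonspecific binding set with 10 μM almorexant. Filter-bound radioactivity counted by scintillation; one-site competition IC50 converted to Ki using pre-determined Kd, compounds run in triplicate.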

Question: What does the source list for `C[C@H]1[C@H](Nc2nc3ccccc3o2)CCCN1C(=O)c1ccc(F)cc1-c1ncccn1` (relative stereo) [Example 206, ((2S*,3R*)-3-(benzo[d]oxazol-2-ylamino)-2-methylpiperidin-1-yl)(4-fluoro-2-(pyrimidin-2-yl)phenyl)methanone]?
Answer: Ki (rat orexin 1 receptor): 16 nM; Ki (human orexin 1 receptor): 16 nM; Ki (human orexin 2 receptor): 564 nM

Question: `C[C@H]1[C@H](Nc2cnc(C(F)(F)F)cn2)CCCN1C(=O)c1ccc(F)cc1-c1ncco1` (relative stereo) [Example 208, (4-fluoro-2-(oxazol-2-yl)phenyl)((2S*,3R*)-2-methyl-3-((5-(trifluoromethyl)pyrazin-2-yl)amino)piperidin-1-yl)methanone] was tested. Which Ki (rat orexin 1 receptor) did it give?
Answer: 67 nM

Question: And the Ki (human orexin 1 receptor)?
Answer: 34 nM

Question: And the Ki (human orexin 2 receptor)?
Answer: 1100 nM

Question: Which Ki (rat orexin 1 receptor) does the source give for `C[C@H]1[C@H](Nc2cnc(C(F)(F)F)cn2)CCCN1C(=O)c1ccc(F)cc1-c1ncccn1` (relative stereo) [Example 209, (4-fluoro-2-(pyrimidin-2-yl)phenyl)((2S*,3R*)-2-methyl-3-((5-(trifluoromethyl)pyrazin-2-yl)amino)piperidin-1-yl)methanone] here?
Answer: 16 nM

Question: And the Ki (human orexin 1 receptor)?
Answer: 25 nM

Question: What about the Ki (human orexin 2 receptor) of the same compound?
Answer: 944 nM

Question: Which results are given for `C[C@H]1[C@H](Nc2ccc(C(F)(F)F)cn2)CCCN1C(=O)c1ncccc1-c1ncccn1` (relative stereo) [Example 265, ((2S*,3R*)-2-methyl-3-((5-(trifluoromethyl)pyridin-2-yl)amino)piperidin-1-yl)(3-(pyrimidin-2-yl)pyridin-2-yl)methanone]?
Answer: Ki (rat orexin 1 receptor): 16 nM; Ki (human orexin 1 receptor): 24 nM; Ki (human orexin 2 receptor): 293 nM

Question: For `Cc1cnc(C(=O)N2CCC[C@@H](Nc3ccc(C(F)(F)F)cn3)[C@@H]2C)c(-n2nccn2)c1` [Example 26, ((2S,3R)-2-methyl-3-((5-(trifluoromethyl)pyridin-2-yl)amino)piperidin-1-yl)(5-methyl-3-(2H-1,2,3-triazol-2-yl)pyridin-2-yl)methanone], which Ki (rat orexin 1 receptor) is on record?
Answer: 12 nM

Question: And the Ki (human orexin 1 receptor)?
Answer: 16 nM

Question: And the Ki (human orexin 2 receptor)?
Answer: 2370 nM

Question: Which results are given for `Cc1cnc(C(=O)N2CCC[C@@H](Nc3ccc(Cl)cn3)[C@@H]2C)c(-c2ncco2)c1` [Example 77, ((2S,3R)-3-((5-chloropyridin-2-yl)amino)-2-methylpiperidin-1-yl)(5-methyl-3-(oxazol-2-yl)pyridin-2-yl)methanone]?
Answer: Ki (rat orexin 1 receptor): 41 nM; Ki (human orexin 1 receptor): 60 nM; Ki (human orexin 2 receptor): 4230 nM

Question: For `COc1ccc(-n2nccn2)c(C(=O)N2CCC[C@@H](Nc3ncc(C(F)(F)F)cn3)[C@@H]2C)c1` [Example 89, (5-methoxy-2-(2H-1,2,3-triazol-2-yl)phenyl)((2S,3R)-2-methyl-3-((5-(trifluoromethyl)pyrimidin-2-yl)amino)piperidin-1-yl)methanone], which Ki (rat orexin 1 receptor) is on record?
Answer: 11 nM

Question: And the Ki (human orexin 1 receptor)?
Answer: 9 nM

Question: And the Ki (human orexin 2 receptor)?
Answer: 422 nM

Question: With `COc1ccc(C(=O)N2CCC[C@@H](Nc3ccc(C(F)(F)F)cn3)[C@@H]2C)c(-n2nccn2)c1` [Example 97, (4-methoxy-2-(2H-1,2,3-triazol-2-yl)phenyl)((2S,3R)-2-methyl-3-((5-(trifluoromethyl)pyridin-2-yl)amino)piperidin-1-yl)methanone] as the compound, how does the Ki (rat orexin 1 receptor) read?
Answer: 33 nM

Question: What about the Ki (human orexin 1 receptor) of the same compound?
Answer: 34 nM

Question: And the Ki (human orexin 2 receptor)?
Answer: 4900 nM

Question: Which Ki (rat orexin 1 receptor) does the source give for `Cc1cnc(C(=O)N2CCC[C@@H](Oc3cnc(C(F)(F)F)cn3)[C@@H]2C)c(-n2nccn2)c1` [Example 105, ((2S,3R)-2-methyl-3-((5-(trifluoromethyl)pyrazin-2-yl)oxy)piperidin-1-yl)(5-methyl-3-(2H-1,2,3-triazol-2-yl)pyridin-2-yl)methanone] here?
Answer: 192 nM

Question: What about the Ki (human orexin 1 receptor) of the same compound?
Answer: 269 nM

Question: And the Ki (human orexin 2 receptor)?
Answer: > 10000 nM

Question: Which results are given for `C[C@H]1[C@H](Oc2cnc(C(F)(F)F)cn2)CCCN1C(=O)c1ccccc1-n1nccn1` [Example 106, (2-(2H-1,2,3-triazol-2-yl)phenyl)((2S,3R)-2-methyl-3-((5-(trifluoromethyl)pyrazin-2-yl)oxy)piperidin-1-yl)methanone]?
Answer: Ki (rat orexin 1 receptor): 44 nM; Ki (human orexin 1 receptor): 45 nM; Ki (human orexin 2 receptor): 912 nM

Question: For `Cc1ccc(-n2nccn2)c(C(=O)N2CCC[C@@H](Oc3cnc(C(F)(F)F)cn3)[C@@H]2C)n1` [Example 107, ((2S,3R)-2-methyl-3-((5-(trifluoromethyl)pyrazin-2-yl)oxy)piperidin-1-yl)(6-methyl-3-(2H-1,2,3-triazol-2-yl)pyridin-2-yl)methanone], which Ki (rat orexin 1 receptor) is on record?
Answer: 34 nM

Question: What about the Ki (human orexin 1 receptor) of the same compound?
Answer: 38 nM

Question: And the Ki (human orexin 2 receptor)?
Answer: 2300 nM

Question: For `C[C@H]1[C@H](Oc2ccc(C(F)(F)F)cn2)CCCN1C(=O)c1ccccc1-n1nccn1` [Example 110, (2-(2H-1,2,3-triazol-2-yl)phenyl)((2S,3R)-2-methyl-3-((5-(trifluoromethyl)pyridin-2-yl)oxy)piperidin-1-yl)methanone], which Ki (rat orexin 1 receptor) is on record?
Answer: 12 nM

Question: What about the Ki (human orexin 1 receptor) of the same compound?
Answer: 11 nM

Question: And the Ki (human orexin 2 receptor)?
Answer: 246 nM

Question: For `Cc1cnc(C(=O)N2CCC[C@@H](Oc3ccc(C(F)(F)F)cn3)[C@@H]2C)c(-n2nccn2)c1` [Example 111, ((2S,3R)-2-methyl-3-((5-(trifluoromethyl)pyridin-2-yl)oxy)piperidin-1-yl)(5-methyl-3-(2H-1,2,3-triazol-2-yl)pyridin-2-yl)methanone], which Ki (rat orexin 1 receptor) is on record?
Answer: 22 nM

Question: And the Ki (human orexin 1 receptor)?
Answer: 31 nM

Question: What about the Ki (human orexin 2 receptor) of the same compound?
Answer: 5100 nM

Question: For `Cc1ccc(C(=O)N2CCC[C@@H](Oc3ccc(C(F)(F)F)cn3)[C@@H]2C)c(-n2nccn2)c1` [Example 112, (4-methyl-2-(2H-1,2,3-triazol-2-yl)phenyl)((2S,3R)-2-methyl-3-((5-(trifluoromethyl)pyridin-2-yl)oxy)piperidin-1-yl)methanone], which Ki (rat orexin 1 receptor) is on record?
Answer: 7 nM

Question: And the Ki (human orexin 1 receptor)?
Answer: 11 nM

Question: And the Ki (human orexin 2 receptor)?
Answer: 664 nM

Question: Which Ki (rat orexin 1 receptor) does the source give for `Cc1ccc(C(=O)N2CCC[C@@H](Oc3cnc(C(F)(F)F)cn3)[C@@H]2C)c(-n2nccn2)c1` [Example 113, (4-methyl-2-(2H-1,2,3-triazol-2-yl)phenyl)((2S,3R)-2-methyl-3-((5-(trifluoromethyl)pyrazin-2-yl)oxy)piperidin-1-yl)methanone] here?
Answer: 25 nM

Question: And the Ki (human orexin 1 receptor)?
Answer: 43 nM

Question: What about the Ki (human orexin 2 receptor) of the same compound?
Answer: 3900 nM

Question: Which results are given for `C[C@H]1[C@H](Oc2ccc(C(F)(F)F)cn2)CCCN1C(=O)c1cccc(F)c1-c1ncccn1` [Example 116, (3-fluoro-2-(pyrimidin-2-yl)phenyl)((2S,3R)-2-methyl-3-((5-(trifluoromethyl)pyridin-2-yl)oxy)piperidin-1-yl)methanone]?
Answer: Ki (rat orexin 1 receptor): 15 nM; Ki (human orexin 1 receptor): 18 nM; Ki (human orexin 2 receptor): 598 nM

Question: How did the Ki (rat orexin 1 receptor) turn out when `C[C@H]1[C@H](Oc2ccc(C(F)(F)F)cn2)CCCN1C(=O)c1cccc(F)c1-n1nccn1` [Example 124, (3-fluoro-2-(2H-1,2,3-triazol-2-yl)phenyl)((2S,3R)-2-methyl-3-((5-(trifluoromethyl)pyridin-2-yl)oxy)piperidin-1-yl)methanone] was run?
Answer: 21 nM

Question: What about the Ki (human orexin 1 receptor) of the same compound?
Answer: 13 nM

Question: What about the Ki (human orexin 2 receptor) of the same compound?
Answer: 460 nM
